Earlier results as cited in patent US20040156894A1, “Use of edible acids in fast-dispersing pharmaceutical solid dosage forms” (priority 2003, published 2004).
Values after ≈ are worked out from the molar mass of the structure shown.

SMILES: CN1C(C(=O)Nc2ccccn2)=C(O)c2ccccc2S1(=O)=O [piroxicam]
- water solubility: < 1000 µg/mL

SMILES: CS(=O)(=O)c1ccc(C2=C(c3ccccc3)C(=O)OC2)cc1 [rofecoxib]
- water solubility: 4 µg/mL (≈ 12.7 µM)
